Test systems include UACC-62 melanoma; CCRF-CEM leukemia; NCI-H522 lung; A549 NSCLC; HT29 colon; HS 578T breast; SK-OV-3 ovarian; OVCAR-3 ovarian; NCI-H23 lung; MCF7 breast.
What all share (assay): NCI tumour cell line growth inhibition, 48 h

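Tested at 5 concentrations; 48 h exposure; 96-well plates; endpoints linearly interpolated, else capped at highest concentration. Here, GI50 denotes the concentration required for 50% inhibition of growth. TGI is the concentration that stops growth completely.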

In the case of `COc1cnc2c(c1)C(=O)c1c-2n(CCCN2CCNCC2)c(=O)c2cc([N+](=O)[O-])ccc12`, the GI50 with UACC-62 melanoma is 0.176 µM; in the assay with CCRF-CEM leukemia, 0.143 µM; in the assay with NCI-H522 lung it was 0.506 µM; in the assay with A549 NSCLC, 0.0699 µM; in the assay on HT29 colon, 0.21 µM; with HS 578T breast, 1.82 µM. The results for the GI50 in the assay on SK-OV-3 ovarian and with OVCAR-3 ovarian were 0.239 µM and 1.19 µM, respectively. The TGI came to 1.57 µM in the assay on UACC-62 melanoma; 1.78 µM in the assay with CCRF-CEM leukemia; 2.03 µM with NCI-H522 lung; 1.5 µM in the assay with A549 NSCLC; 1.53 µM with HT29 colon; 4.6 µM in the assay with HS 578T breast. Besides, the TGI came to 0.771 µM in the assay with SK-OV-3 ovarian and 2.63 µM in the assay with OVCAR-3 ovarian.

In the case of `COc1ccc2c(c1)C(=O)c1c-2c(Nc2cccc(C(C)=O)c2)nc2ccccc12`, the GI50 in the assay on UACC-62 melanoma is 11.6 µM; with CCRF-CEM leukemia it was greater than 100 µM; in the assay on NCI-H522 lung, 8.53 µM; in the assay on A549 NSCLC it was 17.7 µM; in the assay on HT29 colon, 21.2 µM; with NCI-H23 lung, 4.86 µM. Besides, the figures for the GI50 in the assay on HS 578T breast, with MCF7 breast and in the assay on OVCAR-3 ovarian were 3.19 µM, 24 µM and 19.7 µM, respectively. Besides, the TGI is 27.7 µM with UACC-62 melanoma; greater than 100 µM in the assay with CCRF-CEM leukemia; 35.1 µM in the assay with NCI-H522 lung; 40.5 µM with A549 NSCLC; greater than 100 µM in the assay with HT29 colon; 19.3 µM in the assay with NCI-H23 lung. Also, the TGI in the assay with HS 578T breast was 15.5 µM; in the assay on MCF7 breast, greater than 100 µM; in the assay with OVCAR-3 ovarian it was 42.8 µM.

For `COCCn1cc(-c2csc(-c3c[nH]c4ccc(Br)cc34)n2)c2cccnc21`, the GI50 was 4.2 µM with UACC-62 melanoma; 2.17 µM in the assay with NCI-H522 lung; 6.89 µM in the assay on A549 NSCLC; 3.36 µM with HT29 colon; 3.21 µM in the assay on NCI-H23 lung; 4.44 µM in the assay on HS 578T breast. Also, the GI50 in the assay on SK-OV-3 ovarian was 13.9 µM; with MCF7 breast it was 1.79 µM; with OVCAR-3 ovarian, 3.9 µM. The TGI in the assay with UACC-62 melanoma is greater than 100 µM; in the assay with NCI-H522 lung it was 6.93 µM; with A549 NSCLC, greater than 100 µM; with HT29 colon it was greater than 100 µM; with NCI-H23 lung it was greater than 100 µM; with HS 578T breast, 43 µM. Also, the TGI in the assay on SK-OV-3 ovarian, with MCF7 breast and in the assay on OVCAR-3 ovarian was greater than 100 µM each time.

As to `Fc1ccc(Nc2nc3ccccc3c3occc23)cc1`, the GI50 is 12.3 µM in the assay on UACC-62 melanoma; 13.7 µM in the assay on NCI-H522 lung; 8.99 µM with A549 NSCLC; 1.48 µM in the assay with NCI-H23 lung; 14.3 µM in the assay on HS 578T breast; 5.16 µM with SK-OV-3 ovarian. Also, the GI50 was 3.39 µM in the assay with MCF7 breast and 1.48 µM in the assay with OVCAR-3 ovarian. The TGI with UACC-62 melanoma is 24.8 µM; in the assay on NCI-H522 lung, 27.8 µM; in the assay with A549 NSCLC it was 23.2 µM; with NCI-H23 lung, 4.86 µM; in the assay on HS 578T breast, 33.1 µM; with SK-OV-3 ovarian, 18.4 µM. Further, the TGI with MCF7 breast is 18.5 µM; with OVCAR-3 ovarian it was 12.1 µM.

`C[C@@H](Oc1cc(-n2cnc3ccc(OC[C@@H](O)CO)cc32)sc1C(N)=O)c1ccccc1Cl`: the GI50 in the assay on UACC-62 melanoma was 0.107 µM; in the assay with CCRF-CEM leukemia, 0.0127 µM; with A549 NSCLC it was 0.889 µM; in the assay with HT29 colon, 0.0798 µM; with NCI-H23 lung, 0.14 µM; with HS 578T breast, 0.171 µM. The GI50 with SK-OV-3 ovarian is 0.123 µM; in the assay on MCF7 breast, 0.025 µM; with OVCAR-3 ovarian, 0.0491 µM. Besides, the TGI with UACC-62 melanoma was greater than 25 µM; in the assay on CCRF-CEM leukemia, 24.6 µM; in the assay on A549 NSCLC it was greater than 25 µM; in the assay with HT29 colon it was greater than 25 µM; in the assay with NCI-H23 lung it was greater than 25 µM; in the assay with HS 578T breast, 5.31 µM. In addition, the TGI in the assay on SK-OV-3 ovarian is greater than 25 µM; in the assay with MCF7 breast it was greater than 25 µM; in the assay with OVCAR-3 ovarian, 0.176 µM.

`COc1cc(/C=C2\C[C@H]3[C@@H]4CC=C5C[C@@H](OC(C)=O)CC[C@]5(C)[C@H]4CC[C@]3(C)[C@H]2OC(C)=O)ccc1OCCN1CCCC1`: the GI50 with UACC-62 melanoma is 9.48 µM; with CCRF-CEM leukemia, 0.935 µM; with NCI-H522 lung, 18.1 µM; in the assay with A549 NSCLC, 10.9 µM; in the assay on HT29 colon, 11.7 µM; in the assay with NCI-H23 lung it was 10.1 µM. The GI50 is 9.32 µM in the assay on HS 578T breast, 11.1 µM in the assay on MCF7 breast and 10.9 µM with OVCAR-3 ovarian. Besides, the TGI is 17.5 µM in the assay on UACC-62 melanoma; 18.8 µM in the assay with CCRF-CEM leukemia; greater than 50 µM in the assay on NCI-H522 lung; 21.6 µM with A549 NSCLC; greater than 50 µM in the assay on HT29 colon; 19 µM with NCI-H23 lung. Besides, the TGI with HS 578T breast is 18.8 µM; with MCF7 breast it was 29.6 µM; in the assay with OVCAR-3 ovarian, 23.6 µM.

Regarding `COc1cccc(Nc2nccc(-c3cnn4ncccc34)n2)c1`, the GI50 was 0.0486 µM in the assay on UACC-62 melanoma; 0.0723 µM in the assay on CCRF-CEM leukemia; 0.122 µM in the assay with NCI-H522 lung; 0.0698 µM with A549 NSCLC; 0.0513 µM in the assay on HT29 colon; 0.0532 µM in the assay with NCI-H23 lung. Also, the GI50 in the assay on HS 578T breast was 0.0381 µM; with SK-OV-3 ovarian it was 0.151 µM; with MCF7 breast, 0.076 µM. For the same compound, the TGI is 0.139 µM in the assay with UACC-62 melanoma; 0.767 µM in the assay with NCI-H522 lung; 0.198 µM in the assay on HT29 colon; 0.201 µM in the assay with NCI-H23 lung; 0.117 µM in the assay on HS 578T breast; greater than 25 µM with SK-OV-3 ovarian. The compound further yielded a TGI with MCF7 breast greater than 25 µM.

Take `FC(F)(F)c1cc(Nc2ccc3cc(OCCCN4CCOCC4)ccc3n2)ccc1Cl`: the GI50 was 2.03 µM in the assay with CCRF-CEM leukemia; 2.04 µM with NCI-H522 lung; 1.93 µM with A549 NSCLC; 1.59 µM in the assay on HT29 colon; 1.94 µM in the assay with NCI-H23 lung; 1.68 µM in the assay on HS 578T breast. In addition, the GI50 with SK-OV-3 ovarian is 2.21 µM; with MCF7 breast it was 1.51 µM; in the assay on OVCAR-3 ovarian it was 1.93 µM. Besides, the TGI in the assay with CCRF-CEM leukemia was found to be 9.18 µM; in the assay on NCI-H522 lung, 3.82 µM; with A549 NSCLC, 4.3 µM; in the assay with HT29 colon it was 3.16 µM; in the assay with NCI-H23 lung it was 4.8 µM; in the assay on HS 578T breast, 4.36 µM. The TGI with SK-OV-3 ovarian was 4.87 µM; with MCF7 breast, 3.56 µM; in the assay on OVCAR-3 ovarian, 4.47 µM.
